Read-outs that look alike come from different tables or passages of the source.
Assays:
healthy adult rats = conditions: rats; for Mean Motor Activity Response: single chemical
From the text: To motivate the use of these fixed-ratio mixture ray designs consider a study which examines exposure to environmentally relevant pesticides. The OP pesticides chosen for study, based on usage patterns (i.e. pesticides used on same or similar crops) and market share (i.e. highest volume pesticides), were acephate, diazinon, chlorpyrifos, dimethoate, and malathion. Motor activity, a count of the number of passes made across a central area, was used to assess toxicity in healthy adult rats. A full five-pesticide fixed-ratio ray, given by (0.040:0.002:0.031:0.102:0.825) for (acephate:diazinon:chlorpyrifos:dimethoate:malathion), was chosen based on relative dietary exposure estimates of each chemical as projected by the U.S. EPA Dietary Exposure Evaluation Model (DEEM).
Single chemical data were collected approximately 18 months prior to the data along the full fixed-ration ray.
Fixed-ratio ray designs were chosen to study interactions among combinations of multiple pesticides. The pesticides chosen for these studies, based on usage patterns (i.e., pesticides used on the same or similar crops) and market share (i.e., highest volume pesticides), were acephate, diazinon, chlorpyrifos, dimethoate, and malathion. Motor activity, a count of the number of passes made across a central area, was chosen to assess the toxicity of these pesticides in healthy adult rats. The fixed-ratio ray under study was chosen based on the relative dietary exposure estimates of each chemical as projected by the U.S. EPA Dietary Exposure Evaluation Model (DEEM) and is given by (0.040:0.002:0.031:0.102:0.825) for acephate, diazinon, chlorpyrifos, dimethoate, and malathion respectively.
The five-pesticide study described in the introduction is used to illustrate the sample size and power methods developed in Section 3. Due to the high potential of aggregate exposure to OP pesticides, researchers were initially interested in testing the hypothesis of additivity, given in (5), along the full five-pesticide fixed-ratio ray, given by (0.040:0.002:0.031:0.102:0.825) for ([…]), that represents relative dietary exposure estimates. Single chemical data were collected and used to estimate an additivity model along the ray (analysis not shown). Since, the motor activity response is a count variable it was assumed that V(m)=m and the log link function (McCullagh and Nelder, 1989) was used to fit the generalized linear additivity model described in Section 2. […] Eighty-six animals were considered. Fourteen animals were evaluated in the control group. Twelve animals each were evaluated at 10, 55, 100, 200, 300, and 450 mg/kg. Summary statistics for the single chemical and mixture data are provided in the appendix.
The five-pesticide study described in the introduction is used to illustrate the design methodology developed in the following sections. Due to the high potential for aggregate exposure to OP pesticides, researchers were initially interested in testing the hypothesis of additivity, given in (4), along the full five-pesticide fixed-ratio ray, given by (0.040:0.002:0.031:0.102:0.825) for (acephate:diazinon:chlorpyrifos:dimethoate:malathion). Since motor activity response is a count variable, it was assumed that V(μ)=μ and the log link function (McCullagh and Nelder, 1989) was used to fit the generalized linear additivity model given in (1). […] Eighty-six animals were considered. Fourteen animals were evaluated in the control group. Twelve animals each were evaluated at 10, 55, 100, 200, 300, and 450 mg/kg.

rats = conditions: single chemical data, rats
From the text: The endpoint of interest is neurotoxicity in rats as measured by a gait score dichotomized to indicate presence or absence of a gait abnormality (i.e., incoordination, loss of balance, etc.). The fixed-ratio ray under study was chosen based on the relative dietary exposure estimates of each chemical as projected by the U.S. EPA Dietary Exposure Evaluation Model (DEEM) and is given by (0.040:0.002:0.031:0.825:0.102) for ACE, DIA, CPF, MAL, DIM, respectively. […] (Note: Such a strategy can be extended for identifying the impact of the unidentified fraction in a complex mixture.)
The biological endpoint of interest is an indicator of neurotoxicity based on evidence of the presence or absence of a gait abnormality (Moser, 1995). In order to appropriately constrain the probability of a response to be between 0 and 1, a logit link function was used, i.e., g(μ)=log(μ/(1−μ)). It was assumed throughout that the variance changes as a binomial random variable such that Var(Y)=τμ(1−μ) (e.g., McCullagh and Nelder, 1989).
The resulting mixture experiment consisted of a vehicle control (n=14), ‘positive controls’ for ACE alone (6 and 30 mg/kg; n=6, 14, respectively), CPF alone (10, 20, 30 mg/kg; n=6, 8, 6, respectively), DIAZ alone (50 and 125 mg/kg; n=6, 14, respectively), MAL alone (350 mg/kg; n=14), DIM alone (10, 25, 50 mg/kg; n=6, 8, 6, respectively), and six total dose mixture concentrations (10, 55, 100, 200, 300 and 450 mg/kg; n=12 rats per dose group for a total of 72 rats exposed to a mixture of the chemicals) at a fixed mixing ratio ray of (0.040:0.002:0.031:0.825:0.102) for (ACE:DIA:CPF:MAL:DIM). Similarly, the design for a second fixed-ratio ray was based on a reduced number of the pesticides (omitting MAL) with the remaining pesticides at the same relative proportions as in the ‘full’ mixture study. The experiment consisted of a vehicle control (n=8), positive controls (n=8 per group) for ACE (30 mg/kg), CPF (20 mg/kg), DIA (125 mg/kg), and DIM (25 mg/kg), and six total dose mixture concentrations (1.75, 9.6, 17.5, 35, 52.5, and 78.8 mg/kg; n=12 rats per dose group) at a fixed mixing ratio ray of (0.229:0.011:0.177:0.583) for (ACE:DIA:CPF:DIM). Casey et al (2003a,b) describe the motor activity data in the mixture of these five pesticides.

female CD-1 mice = assay: Liver damage by serum sorbitol dehydrogenase (SDH) after 14 days oral gavage of trihalomethane DBPs; conditions: for Estimate of slope parameter γi, additivity model for SDH response: generalized linear model with power link, λ = 0.5, single chemical data only, female CD-1 mice, 14 days oral gavage; for Mean SDH (STD): positive control
Method: The mixture selected for the study used to illustrate the methodology proposed here is that of four trihalomethanes formed as disinfection by-products (DBPs) when water is chlorinated. […] The endpoint of interest is liver damage, as measured by serum sorbitol dehydrogenase (SDH) levels in female CD-1 mice after 14 days of exposure by oral gavage. Seven separate experiments were conducted: four single chemical studies and three mixture studies. A more complete description of the experimental methods is provided in Gennings, et al. (1997; 2000). […] The fixed mixing ratio of interest is associated with the chlorination process of disinfection (McDonald et al., 1999). The purpose of this study was to determine if the four DBPs combine additively, i.e., with no interaction.
The data used to illustrate the methodology developed in the following sections involves the combination of four chemicals, which are disinfection by-products in drinking water. Summary statistics for the single chemical data are provided in Gennings et al. (1997, 2000). A generalized linear model with a power link function, [formula]
After the single chemical studies were completed, three mixture studies were conducted. […] In order to verify that the dose-response relationship was consistent across the different studies, the additivity model given in (1) was used to predict the response for each of the positive control groups. […] The p-value is associated with the Wald-type test for equivalence of the two means.
The objective of this paper is to develop a method for testing for departure from additivity when the single chemical data cannot be used to describe the no interaction case. The mixture data of interest are assumed to result from a fixed-ratio ray design.

[1] = tested on: normal human epidermal keratinocytes (NHEK); conditions: for LD50 (estimated): Example 6; for LD50 (50% cell killing in individual cytotoxicity assays): predetermined, Example 5; for Sample Mean (% viability): single metal, 24 hr
Method: Cells and culture conditions. Cryopreserved, pooled normal human epidermal keratinocytes (NHEK) were purchased from the Clonetics Corp. (San Diego, Calif.). NHEK cells were grown in defined Keratinocyte Growth Medium-KGM™ (Clonetics).
Cytotoxicity analyses. For toxicity studies, cells were plated at a density of 2,500 cells/cm^2 in 6-well plastic tissue culture plates and grown for 24 hr before metal treatment. Triplicate wells of cells were treated with increasing concentrations of As, Cr, Cd, Pb, or a mixture of the four metals for 24 hr. Concentrations used for As and Cr were 0.3, 1, 3, 10 , and 100 mM. The Cr stock was made by mixing a 1:1 ratio of trivalent and hexavalent chromium. Cd and Pb were administered at 3, 10, 30, 100, and 300 mM. […] The concentrations of these three metals in the 1× mixture solution was 7.7 mM As, 4.9 mM Cr, 6.1 mM Cd. […] This 1× solution was serially diluted at a 1:3 ratio to get 0.333, 0.111, 0.037, 0.0123, 0.004, and 0.0014 dilution groups. Double deionized water was used as the vehicle control in all cases. After exposure to the individual metals or metal mixture, cells were refed with fresh metal-free KGM medium and incubated for 3 days prior to viability analysis by the MTT assay.
MTT assay. The MTT assay was carried out using a modification of the method of Mosmann (1983). MTT was dissolved at 5 mg/ml in 1× PBS [phosphate-buffered saline]. This stock solution was filtered through a […] and stored at 4° C. Immediately before use, the stock solution was diluted to 0.5 mg/ml with serum-free KGM to make a working solution. Working solution (1 ml) was added to each well of cells after aspiration of medium. Cells were incubated at 37° C. for 3 hr, after which time, the MTT was removed by aspiration. Cells were subsequently lysed by addition of 0.5 ml of dimethyl sulfoxide (DMSO). The absorbence at 550 nm of samples as well as a DMSO blank was read on a Microplate Autoreader (Bio-Tek Instruments, Inc, Winooski, Vt.). The absorbance of the DMSO blank was subtracted from all values. All absorbance values were standardized to the water vehicle control.
The methodology introduced in this paper is illustrated with cytotoxicity data obtained from assessing interactions among arsenic (As), cadmium (Cd), chromium (Cr), and lead (Pb) in human keratinocytes. The experimental data were obtained from Ray Yang and colleagues at Colorado State University. The endpoint of interest is the percent viability of treated NHEK cells using the MTT assay. […] This 1× solution was serially diluted at a 1:3 ratio to get 0.333, 0.111, 0.037, 0.0123, 0.004, and 0.0014 dilution groups. Double deionized water was used as the vehicle control in all cases.
After exposure to individual metals or metal exposure, cells were refed with fresh metal-free KGM medium and incubated for 3 days prior to viability analysis by the MTT assay. Details of the experimental protocol and methods are described elsewhere (24, 1) and are not included here.

[2] = 1.52 mM/kg, mixture study = 0.05 total dose
[3] = 1.52 mM/kg, mixture study = 1.5 total dose
[4] = 1.52 mM/kg, mixture study = 3.0 total dose

| SMILES | Estimate of slope parameter γi, additivity model for SDH response (female CD-1 mice) | Mean SDH (STD) (female CD-1 mice; [2]) | Mean SDH (STD) (female CD-1 mice; [3]) | Mean SDH (STD) (female CD-1 mice; [4]) | LD50 (estimated) [1] | Sample Mean (% viability) ([1]; dose 3 (mM)) | Sample Mean (% viability) ([1]; dose 10 (mM)) | Sample Mean (% viability) ([1]; dose 30 (mM)) | other results |
| --- | --- | --- | --- | --- | --- | --- | --- | --- | --- |
| COP(=O)(NC(C)=O)SC (centres unmarked) [Acephate, acephate] | – | – | – | – | – | – | – | – | Threshold Estimate (healthy adult rats; dose threshold for motor activity, threshold additivity model, SAR analysis): 6.30 mg/kg; Mean Motor Activity Response (healthy adult rats; dose 3 mg/kg): 200.13; Mean Motor Activity Response (healthy adult rats; dose 10 mg/kg): 165.88; Mean Motor Activity Response (healthy adult rats; dose 30 mg/kg): 108.75; Mean Motor Activity Response (healthy adult rats; dose 60 mg/kg): 58.25; Mean Motor Activity Response (healthy adult rats; dose 120 mg/kg): 33.25; effect when given alone on gait abnormality (rats): significant effect on a gait abnormality |
| ClC(Cl)Br [BDCM, bromodichloromethane] | 3.567 | 107.3 (97.5) | 56.0 (17.4) | 48.8 (23.3) | – | – | – | – | – |
| ClC(Br)Br [CDBM, chlorodibromomethane] | 3.833 | – | – | – | – | – | – | – | Mean SDH (STD) (female CD-1 mice; 0.76 mM/kg, mixture study = 0.05 total dose): 38.0 (11.2); Mean SDH (STD) (female CD-1 mice; 0.76 mM/kg, mixture study = 1.5 total dose): 28.1 (6.7); Mean SDH (STD) (female CD-1 mice; 0.76 mM/kg, mixture study = 3.0 total dose): 19.3 (3.6) |
| BrC(Br)Br [CHBr3, bromoform] | 2.441 | 64.0 (27.8) | 56.0 (24.8) | 86.4 (89.2) | – | – | – | – | – |
| ClC(Cl)Cl [CHCl3, chloroform] | 1.538 | 63.1 (34.9) | 46.6 (21.5) | 24.3 (5.8) | – | – | – | – | – |
| [Cl][Cd][Cl] [Cadmium, cadmium chloride] | – | – | – | – | 6.1 µM | 92.6 % viability | 51.9 % viability | 20.2 % viability | LD50 (50% cell killing in individual cytotoxicity assays) [1]: 6.1 mM; Sample Mean (% viability) ([1]; dose 100 (mM)): 3.8 % viability; Sample Mean (% viability) ([1]; dose 300 (mM)): 4.6 % viability |
| [Cr] [Chromium] | – | – | – | – | 4.9 µM | 79.8 % viability | 23.9 % viability | 6.6 % viability | LD50 (50% cell killing in individual cytotoxicity assays) [1]: 4.9 mM; Sample Mean (% viability) ([1]; dose 0.3 (mM)): 105.1 % viability; Sample Mean (% viability) ([1]; dose 1.0 (mM)): 99.7 % viability |
| CC(=O)[O-].CC(=O)[O-].[Pb+2] [Lead, lead acetate] | – | – | – | – | 100 µM | 95.5 % viability | 91.0 % viability | 98.8 % viability | cell killing ([1]; individual cytotoxicity assay): unable to get complete killing at any dose tested; Sample Mean (% viability) ([1]; dose 100 (mM)): 93.7 % viability; Sample Mean (% viability) ([1]; dose 300 (mM)): 28.9 % viability |
